Laboratory results reported in patent publication US8119795B2, “Triazole derivatives II” (Merck Patent GmbH, priority 2006, dated 2012).

Target: T1, Recombinant human HSP90α (Homo sapiens, UniProt P07900)
T1 construct: host or cells: E. coli
Test: HSP90 radioligand filter binding test ([3H]17AAG competition)
Conditions: [3H]17AAG 0.08 μM, HSP90 1.5 μg/assay, 22° C., 30 min; read-out: IC50* (HSP90 inhibition)
Experimental: Test Method for the Measurement of HSP90 Inhibitors
In the specific case, a radioligand filter binding test is used. The radioligand used here is tritium-labelled 17-allylaminogeldanamycin, [3H]17AAG. This filter binding test allows a targeted search for inhibitors which interfere with the ATP binding site.
Recombinant human HSP90α (E. coli expressed, 95% purity);
HEPES filter buffer (50 mM HEPES, pH 7.0, 5 mM MgCl2, BSA 0.01%)
Multiscreen F B (1 μm) filter plate (Millipore, MAFBNOB 50).
The 96-well microtitre filter plates are firstly irrigated and coated with 0.1% of polyethylenimine.
The test is carried out under the following conditions:
Reaction temperature 22° C.
Reaction time: 30 min., shaking at 800 rpm
50 mM HEPES HCl, pH 7.0, 5 mM MgCl2, 0.01% (w/v) BSA
At the end of the reaction, the supernatant in the filter plate is removed by suction with the aid of a vacuum manifold (Multiscreen Separation System, Millipore), and the filter is washed twice.
The filter plates are then measured in a beta counter (Microbeta, Wallac) with scintillator (Microscint 20, Packard).
“% of control” is determined from the “counts per minutes” values and the IC50 value of a compound is calculated therefrom.

SMILES	IC50 [µM]
COc1cccc(CN(C)C(=O)c2cc(-c3nnc(O)n3-c3ccccc3C)c(O)cc2O)c1 [Compound A6a, 5-{2,4-Dihydroxy-5-[N-(3-methoxybenzyl)-N-methylaminocarbonyl]phenyl}-4-(2-methylphenyl)-3-hydroxy-4H-1,2,4-triazole]	0.01 to 1
Cc1ccccc1-n1c(O)nnc1-c1cc(C(=O)N(C)Cc2ccccc2F)c(O)cc1O [Compound A9, 5-{2,4-Dihydroxy-5-[N-(2-fluorobenzyl)-N-methylaminocarbonyl]phenyl}-4-(2-methylphenyl)-3-hydroxy-4H-1,2,4-triazole]	0.01 to 1
Cc1ccccc1-n1c(O)nnc1-c1cc(C(=O)N(C)Cc2ccc(F)cc2)c(O)cc1O [Compound A12, 5-{2,4-Dihydroxy-5-[N-(4-fluorobenzyl)-N-methylaminocarbonyl]phenyl}-4-(2-methylphenyl)-3-hydroxy-4H-1,2,4-triazole]	0.01 to 1
Cc1ccccc1-n1c(O)nnc1-c1cc(C(=O)N(C)Cc2cccc(F)c2)c(O)cc1O [Compound A15, 5-{2,4-Dihydroxy-5-[N-(3-fluorobenzyl)-N-methylaminocarbonyl]phenyl}-4-(2-methylphenyl)-3-hydroxy-4H-1,2,4-triazole]	0.01 to 1
Cc1ccccc1-n1c(O)nnc1-c1cc(C(=O)N(C)Cc2cccc(Cl)c2)c(O)cc1O [Compound A24, 5-{2,4-Dihydroxy-5-[N-(3-chlorobenzyl)-N-methylaminocarbonyl]phenyl}-4-(2-methylphenyl)-3-hydroxy-4H-1,2,4-triazole]	0.01 to 1
Cc1ccccc1-n1c(O)nnc1-c1cc(C(=O)N(C)Cc2ccccc2Cl)c(O)cc1O [Compound A27, 5-{2,4-Dihydroxy-5-[N-(2-chlorobenzyl)-N-methylaminocarbonyl]phenyl}-4-(2-methylphenyl)-3-hydroxy-4H-1,2,4-triazole]	0.01 to 1
COc1ccc(Cl)cc1CN(C)C(=O)c1cc(-c2nnc(O)n2-c2ccccc2C)c(O)cc1O [Compound A51, 5-{2,4-Dihydroxy-5-[N-(3-chloro-6-methoxybenzyl)-N-methylaminocarbonyl]phenyl}-4-(2-methylphenyl)-3-hydroxy-4H-1,2,4-triazole]	0.01 to 1
Cc1ccccc1-n1c(O)nnc1-c1cc(C(=O)N(C)Cc2ccco2)c(O)cc1O [Compound A57, 5-{2,4-Dihydroxy-5-[N-(furan-2-ylmethyl)-N-methylaminocarbonyl]phenyl}-4-(2-methylphenyl)-3-hydroxy-4H-1,2,4-triazole]	0.01 to 1
CN(Cc1ccco1)C(=O)c1cc(-c2nnc(O)n2-c2ccccc2)c(O)cc1O [Compound A57a, 5-{2,4-Dihydroxy-5-[N-(furan-2-ylmethyl)-N-methylaminocarbonyl]phenyl}-4-phenyl-3-hydroxy-4H-1,2,4-triazole]	0.01 to 1
Cc1cccc(-n2c(O)nnc2-c2cc(C(=O)N(C)Cc3ccco3)c(O)cc2O)c1 [Compound A57b, 5-{2,4-Dihydroxy-5-[N-(furan-2-ylmethyl)-N-methylaminocarbonyl]phenyl}-4-(3-methylphenyl)-3-hydroxy-4H-1,2,4-triazole]	0.01 to 1
CN(Cc1ccco1)C(=O)c1cc(-c2nnc(O)n2-c2ccccc2Cl)c(O)cc1O [Compound A58, 5-{2,4-Dihydroxy-5-[N-(furan-2-ylmethyl)-N-methylaminocarbonyl]phenyl}-4-(2-chlorophenyl)-3-hydroxy-4H-1,2,4-triazole]	0.01 to 1
CN(Cc1ccco1)C(=O)c1cc(-c2nnc(O)n2-c2cccc(Cl)c2)c(O)cc1O [Compound A58a, 5-{2,4-Dihydroxy-5-[N-(furan-2-ylmethyl)-N-methylaminocarbonyl]phenyl}-4-(3-chlorophenyl)-3-hydroxy-4H-1,2,4-triazole]	0.01 to 1
CN(Cc1ccco1)C(=O)c1cc(-c2nnc(O)n2-c2cc(Cl)cc(Cl)c2)c(O)cc1O [Compound A58b, 5-{2,4-Dihydroxy-5-[N-(furan-2-ylmethyl)-N-methylaminocarbonyl]phenyl}-4-(3,5-dichlorophenyl)-3-hydroxy-4H-1,2,4-triazole]	0.01 to 1
CN(Cc1ccco1)C(=O)c1cc(-c2nnc(O)n2-c2ccc(Cl)cc2)c(O)cc1O [Compound A58c, 5-{2,4-Dihydroxy-5-[N-(furan-2-ylmethyl)-N-methylaminocarbonyl]phenyl}-4-(4-chlorophenyl)-3-hydroxy-4H-1,2,4-triazole]	0.01 to 1
CN(Cc1ccco1)C(=O)c1cc(-c2nnc(O)n2-c2cccc(F)c2)c(O)cc1O [Compound A59a, 5-{2,4-Dihydroxy-5-[N-(furan-2-ylmethyl)-N-methylaminocarbonyl]phenyl}-4-(3-fluorophenyl)-3-hydroxy-4H-1,2,4-triazole]	0.01 to 1
CCc1cccc(-n2c(O)nnc2-c2cc(C(=O)N(C)Cc3ccco3)c(O)cc2O)c1 [Compound A59b, 5-{2,4-Dihydroxy-5-[N-(furan-2-ylmethyl)-N-methylaminocarbonyl]phenyl}-4-(3-ethylphenyl)-3-hydroxy-4H-1,2,4-triazole]	0.01 to 1
COc1cccc(-n2c(O)nnc2-c2cc(C(=O)N(C)Cc3ccco3)c(O)cc2O)c1 [Compound A62b, 5-{2,4-Dihydroxy-5-[N-(furan-2-ylmethyl)-N-methylaminocarbonyl]phenyl}-4-(3-methoxyphenyl)-3-hydroxy-4H-1,2,4-triazole]	0.01 to 1
CCc1ccccc1-n1c(O)nnc1-c1cc(C(=O)N(C)Cc2ccco2)c(O)cc1O [Compound A62c, 5-{2,4-Dihydroxy-5-[N-(furan-2-ylmethyl)-N-methylaminocarbonyl]phenyl}-4-(2-ethylphenyl)-3-hydroxy-4H-1,2,4-triazole]	0.01 to 1
COc1cc(O)c(-c2nnc(O)n2-c2ccccc2C)cc1C(=O)N(C)Cc1ccccc1 [Compound A116a, 5-[2-Hydroxy-4-methoxy-5-(N-benzyl-N-methylaminocarbonyl)phenyl]-4-(2-methylphenyl)-3-hydroxy-4H-1,2,4-triazole]	0.01 to 1
Cc1ccccc1-n1c(-c2cc(C(=O)N(C)Cc3cccc(OCCN4CCOCC4)c3)c(O)cc2O)n[nH]c1=O [Compound A116c, 2,4-Dihydroxy-N-methyl-N-[3-(2-morpholin-4-ylethoxy)benzyl]-5-(5-oxo-4-o-tolyl-4,5-dihydro-1H-1,2,4-triazol-3-yl)benzamide]	1 to 10
